Five molecules from ChEMBL document CHEMBL5154710, “Discovery of small molecules interacting at lactate dehydrogenases tetrameric interface using a biophysical screening cascade” (Eur J Med Chem, 2022) can be followed below.

The nature of assay [1]: Stabilization of Red-dye-NHS fluorescent-labeled human LDH-Htr expressed in Escherichia coli assessed as dissociation constant by MST assay.
Assay [2] in a line: Destabilization of Red-dye-NHS fluorescent-labeled human LDH-5 expressed in Escherichia coli assessed as dissociation constant by MST assay.
The nature of assay [3]: Destabilization of Red-dye-NHS fluorescent-labeled human LDH-1 expressed in Escherichia coli assessed as dissociation constant by MST assay.
Assay [4] is filed under the species Homo sapiens. As to the kind of experiment: Stabilization of human LDH-Htr expressed in Escherichia coli assessed as change in melting temperature at 1 mM heated for 3 mins by NanoDSF assay. (In general: DSF heats the sample and reads unfolding from a dye or from intrinsic fluorescence.)
Assay [5] is filed under the species Homo sapiens. As to the kind of experiment: Destabilization of human LDH-5 expressed in Escherichia coli assessed as change in melting temperature at 1 mM heated for 3 mins by NanoDSF assay.
For assay [6], the species on record is Homo sapiens. As to the kind of experiment: Destabilization of human LDH-1expressed in Escherichia coli assessed as change in melting temperature at 1 mM heated for 3 mins by NanoDSF assay.
The species entered for assay [7] is Homo sapiens. As to the kind of experiment: Displacement of macro-cycle 7 from human LDH-Htr expressed in Escherichia coli assessed as decay in saturation transfer at 100 uM by saturation transfer difference-1H NMR analysis.
Assay [8] can be described thus: Inhibition of LDH-5 (unknown origin) assessed as denaturation of LDH-5 using NADH and pyruvate as substrate by spectrophotometric analysis. The arrangement: species or system Homo sapiens.

For `Nc1nc2ccccc2n1Cc1ccc(F)cc1`, the dissociation constant (Kd) is 183 µM in assay [1], 324 µM in assay [2] and 48 µM in assay [3]. Further, the shift in melting temperature (ΔTm) was 0.8 °C in the assay filed under Homo sapiens [4], -2.6 °C in the assay listed under Homo sapiens [5] and 0.4 °C in the assay filed under Homo sapiens [6].
In the case of `CNCCCC12CCC(c3ccccc31)c1ccccc12`, the values for the ΔTm in the assay listed under Homo sapiens [4], in the assay filed under Homo sapiens [5] and in the assay listed under Homo sapiens [6] were 4.6 °C, -2.7 °C and -1.4 °C, respectively.
As to `O=C(O)c1cc(-c2ccc(F)cc2F)ccc1O` [DIFLUNISAL], the Kd in assay [1] turned out to be 1000 µM; in assay [2], 343 µM; in assay [3], 116 µM. Besides, the figures for the ΔTm in the assay filed under Homo sapiens [4], in the assay listed under Homo sapiens [5] and in the assay filed under Homo sapiens [6] were 3.1 °C, -2.1 °C and 0.1 °C, respectively.
Take `O=C(O)c1ccccc1Nc1cccc(C(F)(F)F)c1` [FLUFENAMIC ACID]: the Kd in assay [1] is 900 µM; in assay [3], 1700 µM. In addition, the ΔTm in the assay filed under Homo sapiens [4] is 1.9 °C; in the assay filed under Homo sapiens [5], -1.7 °C; in the assay filed under Homo sapiens [6], 0.4 °C.
Consider `Cc1ccc(/C(=C\CN2CCCC2)c2ccccn2)cc1` [TRIPROLIDINE], for which the Activity in the assay listed under Homo sapiens [7] amounted to 40%. For the same molecule, the IC50 in assay [8] turned out to be 7600 µM.

What is called Kd is the free concentration of one partner at which half of the binding sites on the other are occupied at equilibrium, for simple one-to-one binding. By ΔTm is commonly meant the shift of the melting midpoint relative to a reference. One may read the IC50 as the concentration that inhibits the measured activity by half.
